Assay results: PubChem BioAssay (NCI)
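Tested at 5 concentrations; 48 h exposure; 96-well plates; endpoints linearly interpolated, else capped at highest concentration. TGI is the concentration that stops growth completely.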 Where a SMILES comes first, the peptide text is derived from it. [ ]: non-standard residue; d: D form. The star is where a group is joined. Cbz = O=C(OCc1ccccc1)*; Aib = CC(C)(N)C(=O)O; OBn = c1ccc(CO*)cc1

Tested on: LOX IMVI melanoma
Test: DTP human tumour cell line panel, 48 h

Structure (SMILES)	TGI [µM]
COc1cc(Nc2ccc3c(c2)CCC3)nc(OC)n1	> 100
CNc1[nH]c(=S)nc2sc3c(c12)CCCC3	> 75
CCOC(=O)c1c2cccccc-2nc1Nc1cccc2c(C)ccnc12	> 10
Cc1c2c(c(C)n1-c1ccccc1)C(=O)N(CCN1CCN(c3cccc(C(F)(F)F)c3)CC1)C2=O	> 100
CCOC(=O)CC/C(=N/Nc1ccc(Cl)cc1[N+](=O)[O-])C(=O)OCC	> 100
COc1cc(O)c2c(=O)c(OC)c(-c3ccc(OC)c(O)c3)oc2c1	> 100
O=c1c2c(no[n+]2[O-])c2ccccc2n1-c1ccccc1	7.28
Clc1sc(Cl)c2c1[C@@H](Cl)C[C@@H]2Br	> 100
CC(NC(=O)C(C)(C)NC(=O)C(CC(=O)OCc1ccccc1)NC(=O)OCc1ccccc1)C(N)=O (stereo not given) (Cbz-Asp(OBn)-[Aib]-Ala-NH2; configuration not given here)	> 100
c1ccc(C(C(=Nc2ccc(Cc3ccc(N=C(C(c4ccccc4)c4ccccc4)N4CC4)cc3)cc2)N2CC2)c2ccccc2)cc1	18.9
OCCCc1ccc2c(c1)[C@H](CO)[C@@H](c1ccc(O)cc1)O2	> 100
c1ccc(C2=NOC(c3ccccc3)N2C23CC4CC(CC(C4)C2)C3)cc1 (stereo not given)	> 10
CCOC(=O)C(NC(=O)CC)(N1CCN(c2cc3c(cc2F)c(=O)c(C(=O)O)cn3C2CC2)CC1)C(F)(F)F (stereo not given)	> 100
O=[N+]([O-])c1cc2oc(CSc3ccccc3)nc2cc1Cl	> 100
CC(C)(CO)CNc1nc(N)nc(Cl)c1/C=N/O	> 100
O=c1onc2n1-c1cc(Cl)ccc1C(=S)N1CSCC21 (stereo not given)	> 100
O=C(O)C(O)C(O)C(O)C(O)CO (stereo not given)	> 100

Tested on: T-47D breast
Test: DTP human tumour cell line panel, 48 h

Structure (SMILES)	TGI [µM]
COc1cc(Nc2ccc3c(c2)CCC3)nc(OC)n1	> 100
CNc1[nH]c(=S)nc2sc3c(c12)CCCC3	> 75
CCOC(=O)c1c2cccccc-2nc1Nc1cccc2c(C)ccnc12	> 10
Cc1c2c(c(C)n1-c1ccccc1)C(=O)N(CCN1CCN(c3cccc(C(F)(F)F)c3)CC1)C2=O	> 100
CCOC(=O)CC/C(=N/Nc1ccc(Cl)cc1[N+](=O)[O-])C(=O)OCC	> 100
COc1cc(O)c2c(=O)c(OC)c(-c3ccc(OC)c(O)c3)oc2c1	> 100
O=c1c2c(no[n+]2[O-])c2ccccc2n1-c1ccccc1	23.6
Clc1sc(Cl)c2c1[C@@H](Cl)C[C@@H]2Br	> 100
CC(NC(=O)C(C)(C)NC(=O)C(CC(=O)OCc1ccccc1)NC(=O)OCc1ccccc1)C(N)=O (stereo not given) (Cbz-Asp(OBn)-[Aib]-Ala-NH2; configuration not given here)	> 100
c1ccc(C(C(=Nc2ccc(Cc3ccc(N=C(C(c4ccccc4)c4ccccc4)N4CC4)cc3)cc2)N2CC2)c2ccccc2)cc1	16.5
OCCCc1ccc2c(c1)[C@H](CO)[C@@H](c1ccc(O)cc1)O2	> 100
c1ccc(C2=NOC(c3ccccc3)N2C23CC4CC(CC(C4)C2)C3)cc1 (stereo not given)	> 10
CCOC(=O)C(NC(=O)CC)(N1CCN(c2cc3c(cc2F)c(=O)c(C(=O)O)cn3C2CC2)CC1)C(F)(F)F (stereo not given)	> 100
O=[N+]([O-])c1cc2oc(CSc3ccccc3)nc2cc1Cl	> 100
CC(C)(CO)CNc1nc(N)nc(Cl)c1/C=N/O	38.9
O=c1onc2n1-c1cc(Cl)ccc1C(=S)N1CSCC21 (stereo not given)	> 100
O=C(O)C(O)C(O)C(O)C(O)CO (stereo not given)	> 100

Tested on: MCF7 breast
Test: DTP human tumour cell line panel, 48 h

Structure (SMILES)	TGI [µM]
COc1cc(Nc2ccc3c(c2)CCC3)nc(OC)n1	> 100
CNc1[nH]c(=S)nc2sc3c(c12)CCCC3	> 75
CCOC(=O)c1c2cccccc-2nc1Nc1cccc2c(C)ccnc12	> 10
Cc1c2c(c(C)n1-c1ccccc1)C(=O)N(CCN1CCN(c3cccc(C(F)(F)F)c3)CC1)C2=O	> 100
CCOC(=O)CC/C(=N/Nc1ccc(Cl)cc1[N+](=O)[O-])C(=O)OCC	> 100
COc1cc(O)c2c(=O)c(OC)c(-c3ccc(OC)c(O)c3)oc2c1	> 100
O=c1c2c(no[n+]2[O-])c2ccccc2n1-c1ccccc1	15.6
Clc1sc(Cl)c2c1[C@@H](Cl)C[C@@H]2Br	> 100
CC(NC(=O)C(C)(C)NC(=O)C(CC(=O)OCc1ccccc1)NC(=O)OCc1ccccc1)C(N)=O (stereo not given) (Cbz-Asp(OBn)-[Aib]-Ala-NH2; configuration not given here)	> 100
c1ccc(C(C(=Nc2ccc(Cc3ccc(N=C(C(c4ccccc4)c4ccccc4)N4CC4)cc3)cc2)N2CC2)c2ccccc2)cc1	15.4
OCCCc1ccc2c(c1)[C@H](CO)[C@@H](c1ccc(O)cc1)O2	> 100
c1ccc(C2=NOC(c3ccccc3)N2C23CC4CC(CC(C4)C2)C3)cc1 (stereo not given)	> 10
CCOC(=O)C(NC(=O)CC)(N1CCN(c2cc3c(cc2F)c(=O)c(C(=O)O)cn3C2CC2)CC1)C(F)(F)F (stereo not given)	> 100
O=[N+]([O-])c1cc2oc(CSc3ccccc3)nc2cc1Cl	> 100
CC(C)(CO)CNc1nc(N)nc(Cl)c1/C=N/O	> 100
O=c1onc2n1-c1cc(Cl)ccc1C(=S)N1CSCC21 (stereo not given)	> 100
O=C(O)C(O)C(O)C(O)C(O)CO (stereo not given)	> 100

Tested on: UACC-62 melanoma
Test: DTP human tumour cell line panel, 48 h

Structure (SMILES)	TGI [µM]
COc1cc(Nc2ccc3c(c2)CCC3)nc(OC)n1	> 100
CNc1[nH]c(=S)nc2sc3c(c12)CCCC3	> 75
CCOC(=O)c1c2cccccc-2nc1Nc1cccc2c(C)ccnc12	> 10
Cc1c2c(c(C)n1-c1ccccc1)C(=O)N(CCN1CCN(c3cccc(C(F)(F)F)c3)CC1)C2=O	> 100
CCOC(=O)CC/C(=N/Nc1ccc(Cl)cc1[N+](=O)[O-])C(=O)OCC	> 100
COc1cc(O)c2c(=O)c(OC)c(-c3ccc(OC)c(O)c3)oc2c1	> 100
O=c1c2c(no[n+]2[O-])c2ccccc2n1-c1ccccc1	13.7
Clc1sc(Cl)c2c1[C@@H](Cl)C[C@@H]2Br	> 100
CC(NC(=O)C(C)(C)NC(=O)C(CC(=O)OCc1ccccc1)NC(=O)OCc1ccccc1)C(N)=O (stereo not given) (Cbz-Asp(OBn)-[Aib]-Ala-NH2; configuration not given here)	> 100
c1ccc(C(C(=Nc2ccc(Cc3ccc(N=C(C(c4ccccc4)c4ccccc4)N4CC4)cc3)cc2)N2CC2)c2ccccc2)cc1	21.7
OCCCc1ccc2c(c1)[C@H](CO)[C@@H](c1ccc(O)cc1)O2	> 100
c1ccc(C2=NOC(c3ccccc3)N2C23CC4CC(CC(C4)C2)C3)cc1 (stereo not given)	> 10
CCOC(=O)C(NC(=O)CC)(N1CCN(c2cc3c(cc2F)c(=O)c(C(=O)O)cn3C2CC2)CC1)C(F)(F)F (stereo not given)	> 100
O=[N+]([O-])c1cc2oc(CSc3ccccc3)nc2cc1Cl	> 100
CC(C)(CO)CNc1nc(N)nc(Cl)c1/C=N/O	> 100
O=c1onc2n1-c1cc(Cl)ccc1C(=S)N1CSCC21 (stereo not given)	> 100
O=C(O)C(O)C(O)C(O)C(O)CO (stereo not given)	> 100

Tested on: HCT-15 colon
Test: DTP human tumour cell line panel, 48 h

Structure (SMILES)	TGI [µM]
COc1cc(Nc2ccc3c(c2)CCC3)nc(OC)n1	> 100
CNc1[nH]c(=S)nc2sc3c(c12)CCCC3	> 75
CCOC(=O)c1c2cccccc-2nc1Nc1cccc2c(C)ccnc12	> 10
Cc1c2c(c(C)n1-c1ccccc1)C(=O)N(CCN1CCN(c3cccc(C(F)(F)F)c3)CC1)C2=O	> 100
CCOC(=O)CC/C(=N/Nc1ccc(Cl)cc1[N+](=O)[O-])C(=O)OCC	> 100
COc1cc(O)c2c(=O)c(OC)c(-c3ccc(OC)c(O)c3)oc2c1	> 100
O=c1c2c(no[n+]2[O-])c2ccccc2n1-c1ccccc1	8.76
Clc1sc(Cl)c2c1[C@@H](Cl)C[C@@H]2Br	> 100
CC(NC(=O)C(C)(C)NC(=O)C(CC(=O)OCc1ccccc1)NC(=O)OCc1ccccc1)C(N)=O (stereo not given) (Cbz-Asp(OBn)-[Aib]-Ala-NH2; configuration not given here)	> 100
c1ccc(C(C(=Nc2ccc(Cc3ccc(N=C(C(c4ccccc4)c4ccccc4)N4CC4)cc3)cc2)N2CC2)c2ccccc2)cc1	21.7
OCCCc1ccc2c(c1)[C@H](CO)[C@@H](c1ccc(O)cc1)O2	> 100
c1ccc(C2=NOC(c3ccccc3)N2C23CC4CC(CC(C4)C2)C3)cc1 (stereo not given)	> 10
CCOC(=O)C(NC(=O)CC)(N1CCN(c2cc3c(cc2F)c(=O)c(C(=O)O)cn3C2CC2)CC1)C(F)(F)F (stereo not given)	> 100
O=[N+]([O-])c1cc2oc(CSc3ccccc3)nc2cc1Cl	> 100
CC(C)(CO)CNc1nc(N)nc(Cl)c1/C=N/O	> 100
O=c1onc2n1-c1cc(Cl)ccc1C(=S)N1CSCC21 (stereo not given)	> 100
O=C(O)C(O)C(O)C(O)C(O)CO (stereo not given)	> 100
